Assay results: patent publication US20260116868A1 (Arcus Biosciences, Inc., priority 2023, published 2026)

How the values were obtained:
Jurkat cells = assay: IL-2 secretion assay in Jurkat cells activated with CD3/CD28 T Cell Activator; assay type: cell-based; conditions: Homo sapiens; Jurkat cells, CD3/CD28 T Cell Activator, 24 h, IL-2 AlphaLISA; read-out: IL-2 Secretion (EC50)
Summary of the method: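 Jurkat cells in Opti-MEM were preincubated 1 h at 37° C with compound (final 10 μM to 300 pM, 16-point 1:2 dilution), then activated with human CD3/CD28 T Cell Activator for 24 h at 37° C. Supernatant IL-2 measured by AlphaLISA; EC50 from 4-parameter logistic fit.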

Cbl-b = molecular target: T1, Cbl-b (Homo sapiens, UniProt Q13191); assay: Cbl-b probe displacement HTRF binding assay; conditions: 0.4 nM Cbl-b, 150 nM BODIPY probe
T1 construct: biotin (biotinylated protein)
Summary of the method: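 Binding IC50 from four-parameter fit of HTRF signal loss, normalised to DMSO (0%) and no-protein (100%) wells. Biotinylated Cbl-b 0.4 nM was preincubated 60 min with compound (20-point 1:2 dilution) before 15 min with 150 nM BODIPY probe; Tb-streptavidin detection.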

T1 sequence (Q13191 whole entry, species assumed): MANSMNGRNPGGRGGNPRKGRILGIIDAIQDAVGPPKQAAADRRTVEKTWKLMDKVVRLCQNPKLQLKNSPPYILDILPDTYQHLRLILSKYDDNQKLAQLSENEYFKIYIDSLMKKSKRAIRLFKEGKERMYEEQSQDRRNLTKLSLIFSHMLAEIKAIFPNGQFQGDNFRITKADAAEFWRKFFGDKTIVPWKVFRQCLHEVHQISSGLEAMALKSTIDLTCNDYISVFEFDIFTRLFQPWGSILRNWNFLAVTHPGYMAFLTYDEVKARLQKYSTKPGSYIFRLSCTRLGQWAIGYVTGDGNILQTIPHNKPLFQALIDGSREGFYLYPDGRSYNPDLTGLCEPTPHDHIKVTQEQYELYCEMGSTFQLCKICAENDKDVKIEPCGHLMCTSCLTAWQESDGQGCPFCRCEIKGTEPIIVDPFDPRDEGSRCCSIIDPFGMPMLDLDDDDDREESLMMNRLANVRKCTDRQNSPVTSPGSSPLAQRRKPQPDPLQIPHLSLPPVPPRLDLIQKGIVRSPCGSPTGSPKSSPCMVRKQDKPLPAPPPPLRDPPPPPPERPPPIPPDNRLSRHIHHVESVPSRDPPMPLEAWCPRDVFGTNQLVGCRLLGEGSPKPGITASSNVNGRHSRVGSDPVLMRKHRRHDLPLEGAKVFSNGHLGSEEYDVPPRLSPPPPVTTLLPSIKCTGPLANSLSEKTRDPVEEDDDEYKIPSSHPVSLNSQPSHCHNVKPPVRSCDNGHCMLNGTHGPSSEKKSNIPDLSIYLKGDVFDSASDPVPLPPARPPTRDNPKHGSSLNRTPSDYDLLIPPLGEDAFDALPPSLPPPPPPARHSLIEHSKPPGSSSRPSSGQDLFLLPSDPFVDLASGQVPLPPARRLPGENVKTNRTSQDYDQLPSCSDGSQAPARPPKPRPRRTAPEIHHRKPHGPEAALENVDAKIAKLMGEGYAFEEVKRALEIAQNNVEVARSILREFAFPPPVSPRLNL

What does the source list for `COC1CN(Cc2cc(C(=O)Nc3cc(-c4ccc(F)cc4-c4nncn4C)cc(C4CC4)n3)c(=O)n(C3CC3)c2)C1` [Example 26, N-{6-cyclopropyl-4-[4-fluoro-2-(4-methyl-4H-1,2,4-triazol-3-yl)phenyl]-2-pyridyl}-1-cyclopropyl-5-[(3-methoxy-1-azetidinyl)methyl]-2-oxo-1,2-dihydronicotinamide]?
EC50 (Jurkat cells): 0.1 to 1 µM; IC50 (Cbl-b): < 0.1 µM
